Measurements taken from patent US10626125B2, “1,1,1-trifluoro-3-hydroxypropan-2-yl carbamate derivatives as MAGL inhibitors” (PFIZER INC., priority 2017, dated 2020).
Where two headings read alike, the source gives them in different places.

Columns and labels:
[1] = target: T1, human recombinant Monoacylglycerol Lipase (Homo sapiens, UniProt Q99685); assay: MAGL enzymatic assay (IC50; 7-HCA substrate added at T=0 min or T=30 min); type: biochemical; details: geometric mean of 2-5 determinations unless otherwise indicated
T1 sequence (Q99685 1-303): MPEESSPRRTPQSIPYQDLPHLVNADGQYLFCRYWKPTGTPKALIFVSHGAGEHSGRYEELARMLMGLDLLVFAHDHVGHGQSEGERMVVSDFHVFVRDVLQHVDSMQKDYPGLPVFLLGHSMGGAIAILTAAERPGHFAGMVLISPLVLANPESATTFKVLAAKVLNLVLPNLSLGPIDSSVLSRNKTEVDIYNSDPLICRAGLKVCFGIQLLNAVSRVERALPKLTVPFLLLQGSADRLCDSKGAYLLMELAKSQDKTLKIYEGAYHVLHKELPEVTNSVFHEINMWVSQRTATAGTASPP

[2] = target: T1, human recombinant Monoacylglycerol Lipase; assay: MAGL inactivation (kinact/KI from enzyme progress curves, T=0 min protocol); details: from plot of Kobs vs. compound concentration, geometric mean of 2-5 determinations (b: ≥6)
[3] = MAGL (T = 30 min) IC50, substrate 7-HCA added after 30 minute incubation (T=30 min)
[4] = substrate 7-HCA added immediately (T=0 min), read-out: MAGL (T = 0 min) IC50

Compound	IC50 [1, 3] [nM]	IC50 [1, 4] [nM]	MAGL kinact/KI [2]
O=C(O[C@H](CO)C(F)(F)F)N1CCC2(CCC(n3cc(C(F)F)cn3)CO2)CC1 (single isomer, unassigned) [Example 75]	12	115	7370 1/s per M
N#Cc1ccc(C2CC3(CCN(C(=O)O[C@H](CO)C(F)(F)F)CC3)C2)nc1 [Example 84, (2R)-1,1,1-trifluoro-3-hydroxypropan-2-yl 2-(5-cyanopyridin-2-yl)-7-azaspiro[3.5]nonane-7-carboxylate]	15	143	4000 1/s per M
N#Cc1cc(C2COC3(CCN(C(=O)O[C@H](CO)C(F)(F)F)CC3)C2)ccc1F (single isomer, unassigned) [Example 28]	3	27	16900 1/s per M
O=C(O[C@H](CO)C(F)(F)F)N1CCC2(CCC(c3ccc(F)cn3)CO2)CC1 (single isomer, unassigned) [Example 74]	6	69	7140 1/s per M
O=C(O[C@H](CO)C(F)(F)F)N1CCC2(CC1)CC(c1cccc(C(F)(F)F)n1)CO2 (single isomer, unassigned) [Example 14]	1	5	124000^b 1/s per M
O=C(O[C@H](CO)C(F)(F)F)N1CCC2(CC1)CC(n1cccn1)C2 [Example 56, (2R)-1,1,1-trifluoro-3-hydroxypropan-2-yl 2-(1H-pyrazol-1-yl)-7-azaspiro[3.5]nonane-7-carboxylate]	30	310	1420 1/s per M
N#Cc1cccc(C2COC3(CCN(C(=O)O[C@H](CO)C(F)(F)F)CC3)C2)c1F (single isomer, unassigned) [Example 71]	3	29	17800 1/s per M
Cc1nn(C2CC3(CCN(C(=O)O[C@H](CO)C(F)(F)F)CC3)C2)c(C)c1C [Example 65, (2R)-1,1,1-trifluoro-3-hydroxypropan-2-yl 2-(3,4,5-trimethyl-1H-pyrazol-1-yl)-7-azaspiro[3.5]nonane-7-carboxylate]	4	44	10600 1/s per M
CN(C(=O)C1CC(F)(F)C1)[C@H]1COC2(CCN(C(=O)O[C@H](CO)C(F)(F)F)CC2)C1 [Example 58, (2R)-1,1,1-trifluoro-3-hydroxypropan-2-yl (3R)-3-{[(3,3-difluorocyclobutyl)carbonyl](methyl)amino}-1-oxa-8-azaspiro[4.5]decane-8-carboxylate]	21	169	1810 1/s per M
O=C(O[C@H](CO)C(F)(F)F)N1CCC2(CC1)CC(n1cc(C(F)F)cn1)C2 [Example 66, (2R)-1,1,1-trifluoro-3-hydroxypropan-2-yl 2-[4-(difluoromethyl)-1H-pyrazol-1-yl]-7-azaspiro[3.5]nonane-7-carboxylate]	4	40	15700 1/s per M
O=C(O[C@H](CO)C(F)(F)F)N1CCC2(CC1)CC(n1cc(C(F)(F)F)cn1)CO2 (single isomer, unassigned) [Example 8]	16	172	2880 1/s per M
O=C(O[C@H](CO)C(F)(F)F)N1CCC2(CC1)CC(c1ccc(C(F)(F)F)cn1)CO2 (single isomer, unassigned) [Example 40]	3	9	21800 1/s per M
O=C(O[C@H](CO)C(F)(F)F)N1CCC2(CC1)CC(Cn1cc(C(F)(F)F)cn1)CO2 (single isomer, unassigned) [Example 3]	7	47	10300 1/s per M
O=C(O[C@H](CO)C(F)(F)F)N1CCC2(CC1)CC(c1ccc(C(F)F)nc1)CO2 (single isomer, unassigned) [Example 37]	8	57	3840 1/s per M
O=C(O[C@H](CO)C(F)(F)F)N1CCC2(CC1)CC(n1cc(C(F)F)cn1)CO2 (single isomer, unassigned) [Example 20]	11	107	7170 1/s per M
Cc1cn(C2COC3(CCN(C(=O)O[C@H](CO)C(F)(F)F)CC3)C2)nc1C (single isomer, unassigned) [Example 54]	4	21	26500 1/s per M
O=C(O[C@H](CO)C(F)(F)F)N1CCC2(CC1)CC(c1cccc(C(F)(F)F)n1)CO2 (single isomer, unassigned) [Example 15]	7	67	8230 1/s per M
N#Cc1ccc(F)c(C2COC3(CCN(C(=O)O[C@H](CO)C(F)(F)F)CC3)C2)c1 (single isomer, unassigned) [Example 30]	4	54	14400 1/s per M
N#Cc1cccc(C2CCOC3(CCN(C(=O)O[C@H](CO)C(F)(F)F)CC3)C2)c1 (single isomer, unassigned) [Example 73]	3	26	8870 1/s per M
O=C(O[C@H](CO)C(F)(F)F)N1CCC2(CC1)CC(c1ccccn1)CO2 (single isomer, unassigned) [Example 41]	7	76	13200 1/s per M

The remaining lines, values ahead:

IC50 [1, 3] [nM]	IC50 [1, 4] [nM]	MAGL kinact/KI [2]	Compound
1	10	18100 1/s per M	O=C(O[C@H](CO)C(F)(F)F)N1CCC2(CC1)CC(n1ncc3ccccc31)CO2 (single isomer, unassigned) [Example 62]
1	9	66900 1/s per M	CN(C1CC2(CCN(C(=O)O[C@H](CO)C(F)(F)F)CC2)C1)S(=O)(=O)C(C)(C)C [Example 61, (2R)-1,1,1-trifluoro-3-hydroxypropan-2-yl 2-[(tert-butylsulfonyl)(methyl)amino]-7-azaspiro[3.5]nonane-7-carboxylate]
0.6	5	156000 1/s per M	O=C(O[C@H](CO)C(F)(F)F)N1CCC2(CC1)CC(c1cc(C(F)(F)F)ccn1)C2 [Example 83, (2R)-1,1,1-trifluoro-3-hydroxypropan-2-yl 2-[4-(trifluoromethyl)pyridin-2-yl]-7-azaspiro[3.5]nonane-7-carboxylate]
1	8	87700 1/s per M	O=C(O[C@H](CO)C(F)(F)F)N1CCC2(CC1)CC(c1ccccc1F)CO2 (single isomer, unassigned) [Example 26]
2	12	22200 1/s per M	O=C(O[C@H](CO)C(F)(F)F)N1CCC2(CC1)CC(n1cc(C(F)(F)F)cn1)C2 [Example 1, (2R)-1,1,1-Trifluoro-3-hydroxypropan-2-yl 2-[4-(trifluoromethyl)-1H-pyrazol-1-yl]-7-azaspiro[3.5]nonane-7-carboxylate]
2	14	60600 1/s per M	O=C(O[C@H](CO)C(F)(F)F)N1CCC2(CC1)CC(c1ccc(C(F)(F)F)nc1)C2 [Example 67, (2R)-1,1,1-trifluoro-3-hydroxypropan-2-yl 2-[6-(trifluoromethyl)pyridin-3-yl]-7-azaspiro[3.5]nonane-7-carboxylate]
0.3	2	267000 1/s per M	O=C(O[C@H](CO)C(F)(F)F)N1CCC2(CC1)CC(Oc1cccc(C(F)F)c1)C2 [Example 60, (2R)-1,1,1-trifluoro-3-hydroxypropan-2-yl 2-[3-(difluoromethyl)phenoxy]-7-azaspiro[3.5]nonane-7-carboxylate]
1	5	137000 1/s per M	O=C(O[C@H](CO)C(F)(F)F)N1CCC2(CC1)CC(Oc1ccnc(C(F)(F)F)c1)C2 [Example 59, (2R)-1,1,1-trifluoro-3-hydroxypropan-2-yl 2-{[2-(trifluoromethyl)pyridin-4-yl]oxy}-7-azaspiro[3.5]nonane-7-carboxylate]
2	9	24400 1/s per M	CC(C)(C)c1cnn(C2COC3(CCN(C(=O)O[C@H](CO)C(F)(F)F)CC3)C2)c1 (single isomer, unassigned) [Example 21]
1	8	63500 1/s per M	O=C(O[C@H](CO)C(F)(F)F)N1CCC2(CC1)CC(c1ccc(C(F)(F)F)cn1)C2 [Example 79, (2R)-1,1,1-trifluoro-3-hydroxypropan-2-yl 2-[5-(trifluoromethyl)pyridin-2-yl]-7-azaspiro[3.5]nonane-7-carboxylate]
1	11	34100 1/s per M	O=C(O[C@H](CO)C(F)(F)F)N1CCC2(CC1)CC(Oc1ccccc1)C2 [Example 63, (2R)-1,1,1-trifluoro-3-hydroxypropan-2-yl 2-phenoxy-7-azaspiro[3.5]nonane-7-carboxylate]
1	9	63200 1/s per M	CN(C1CC2(CCN(C(=O)O[C@H](CO)C(F)(F)F)CC2)C1)S(=O)(=O)c1ccccc1 [Example 45, (2R)-1,1,1-trifluoro-3-hydroxypropan-2-yl 2-[methyl(phenylsulfonyl)amino]-7-azaspiro[3.5]nonane-7-carboxylate]
